Like-named read-outs stand apart in the source and are kept apart here.

Test [1] deals with metastatic ccRCC. Briefly: Combination of SUVEGIL and TORAVA trials (sunitinib): survival versus plasmatic CXCL7. Conditions: both cohorts combined. In kind it is in vivo, human. How it is done: (§1) All patients gave written informed consent. The SUVEGIL trial (NCT00943839) was a multicenter prospective single-arm study. […] Patient characteristics and results have been previously described (Negrier et al., 2011).
(§2) The CXCL5 and CXCL7 cut-off points (respectively 0.1 and 250 ng/ml) for PFS and OS were determined using smoothing spline curves analysis (R software, version 3.2.2). […] The predictive cut-off points determined in the SUVEGIL cohort were used for the TORAVA cohort.

Test [2] concerns metastatic ccRCC. Briefly: TORAVA trial (retrospective validation cohort): survival versus plasmatic CXCL5/CXCL7. In kind it is in vivo, human. As to conditions: patients with CXCL7 plasma levels below 250 ng/ml. How it is done:
as §1, §2

Test [3] relates to metastatic ccRCC.
Procedure: Eligible patients were at least 18 years of age and had metastatic ccRCC histologically confirmed, with the presence of measurable disease according to Response Evaluation Criteria in Solid Tumors (RECIST) v1.1.
The primary end point of the study was to evaluate the correlation between plasmatic levels of CXCL5 and CXCL7 and the overall response rate (ORR). The response was evaluated by investigators' assessment.
The secondary end points were to evaluate the correlation between plasmatic levels of CXCL5 and/or CXCL7 and overall survival (OS) and progression-free survival (PFS), censored at last follow-up for those still alive or who have not progressed.
Blood samples were centrifuged and the plasmas were collected and conserved at −80° C. Plasmatic levels of CXCL5 and CXCL7 were determined by ELISA using R&D (reference DY254) and Peprotech kits (reference 900-K40) respectively. Pure plasma or a 1/5 dilution was used for CXCL5 detection and a 1/100 dilution was used to detect CXCL7.
Spearman's correlation was performed between best response rate and quantitative level of chemokine. The CXCL5 and CXCL7 cut-off points (respectively 0.1 and 250 ng/ml) for PFS and OS were determined using smoothing spline curves analysis (R software, version 3.2.2). Kaplan Meier method was used to produce survival curves and analyses of censored data were performed using Cox models. The predictive cut-off points determined in the SUVEGIL cohort were used for the TORAVA cohort.
Setting [4] is: CXCL7 plasma levels below 250 ng/ml.

For `CCN(CC)CCNC(=O)c1c(C)[nH]c(/C=C2\C(=O)Nc3ccc(F)cc32)c1C` [sunitinib], the OS in the test on metastatic ccRCC [1] (CXCL7 plasma levels above 250 ng/ml, p=0.00025) is listed as 34.4 months; with metastatic ccRCC [1] (setting [4]), 20.7 months. Besides, the “median PFS” value in the test with metastatic ccRCC [1] (setting [4]) is listed as 8.3 months; in the test on metastatic ccRCC [3] (SUVEGIL prospective cohort, all patients), 20.1 months; with metastatic ccRCC [3] (patients with CXCL5 plasma levels below 0.1 ng/ml), 14.9 months. The PFS in the test with metastatic ccRCC [2] stood at 8.6 months; in the test with metastatic ccRCC [3] (patients with CXCL7 plasma levels below 250 ng/ml at diagnosis), 15.1 months. Besides, the “median OS” value was determined as 20.5 months in the test with metastatic ccRCC [3] (patients with CXCL7 plasma levels below 250 ng/ml) and 34.4 months in the test with metastatic ccRCC [3] (patients with CXCL7 plasmatic levels above 250 ng/ml, p=0.001).

The values are drawn from patent US20190195880A1, “METHODS AND KITS FOR PREDICTING THE SENSITIVITY OF A SUBJECT SUFFERING OF RENAL CANCER TO CANCER TREATMENT” (CENTRE NATIONAL DE LA RECHERCHE SCIENTIFIQUE (CNRS), priority 2016, published 2019).
